From patent US20250312352A1, “GLP-1R MODULATING COMPOUNDS” (Gilead Sciences, Inc., priority 2021, published 2025)

molecular target: T1, GLP-1R (Homo sapiens, UniProt P43220); assay: GLP-1R activation cAMP assay (Assay 1 or Assay 2); assay type: cell-based; conditions: cAMP increase in CHO cells stably expressing GLP-1R; compounds run on one of the two cAMP assays
T1 construct: host or cells: CHO cells
In short: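 CHO cells stably expressing human GLP-1R were incubated 1 h in HBSS/20 mM HEPES/0.1% BSA, then exposed to 10-point agonist dilutions for 30 min at 37 °C. cAMP increase was measured with an HTRF Gs dynamic kit; EC50 from sigmoidal fit of response versus log concentration.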

T1 sequence (P43220 24-463): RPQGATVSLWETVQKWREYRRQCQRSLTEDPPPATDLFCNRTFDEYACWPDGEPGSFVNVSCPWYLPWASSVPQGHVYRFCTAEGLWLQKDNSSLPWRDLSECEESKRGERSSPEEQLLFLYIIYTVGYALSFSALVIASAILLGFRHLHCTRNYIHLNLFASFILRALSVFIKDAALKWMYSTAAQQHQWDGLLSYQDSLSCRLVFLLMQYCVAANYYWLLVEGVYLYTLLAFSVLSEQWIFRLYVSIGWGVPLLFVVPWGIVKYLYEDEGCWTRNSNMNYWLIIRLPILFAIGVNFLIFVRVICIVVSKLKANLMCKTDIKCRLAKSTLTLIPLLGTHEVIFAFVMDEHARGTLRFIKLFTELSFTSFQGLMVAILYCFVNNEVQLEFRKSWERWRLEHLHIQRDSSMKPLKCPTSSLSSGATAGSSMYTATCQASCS

Structure (SMILES) | EC50
O=C(O)c1ccc2nc(Cc3cc(F)c(-c4cccc(OCc5ncc(C6CC6)o5)n4)cc3F)n(C[C@@H]3CCO3)c2c1 [Example 63, (S)-2-(4-(6-((5-cyclopropyloxazol-2-yl)methoxy)pyridin-2-yl)-2,5-difluorobenzyl)-1-(oxetan-2-ylmethyl)-1H-benzo[d]imidazole-6-carboxylic acid] | 0.89 nM
O=C(O)c1ccc2nc(Cc3cc(F)c(-c4cccc(OCc5ccn(CC(F)F)n5)n4)cc3F)n(C[C@@H]3CCO3)c2c1 [Example 64, (S)-2-(4-(6-((1-(2,2-difluoroethyl)-1H-pyrazol-3-yl)methoxy)pyridin-2-yl)-2,5-difluorobenzyl)-1-(oxetan-2-ylmethyl)-1H-benzo[d]imidazole-6-carboxylic acid] | 6.38 nM
O=C(O)c1ccc2nc(Cc3cc(F)c(-c4cccc(OCc5cc6n(n5)CCC6)n4)cc3F)n(C[C@@H]3CCO3)c2c1 [Example 65, (S)-2-(4-(6-((5,6-dihydro-4H-pyrrolo[1,2-b]pyrazol-2-yl)methoxy)pyridin-2-yl)-2,5-difluorobenzyl)-1-(oxetan-2-ylmethyl)-1H-benzo[d]imidazole-6-carboxylic acid] | 0.19 nM
O=C(O)c1ccc2nc(Cc3cc(F)c(-c4cccc(OCc5ccn(CC(F)(F)F)n5)n4)cc3F)n(C[C@@H]3CCO3)c2c1 [Example 66, (S)-2-(2,5-difluoro-4-(6-((1-(2,2,2-trifluoroethyl)-1H-pyrazol-3-yl)methoxy)pyridin-2-yl)benzyl)-1-(oxetan-2-ylmethyl)-1H-benzo[d]imidazole-6-carboxylic acid] | 6.65 nM
O=C(O)c1ccc2nc(Cc3cc(F)c(-c4cccc(OCc5nnc(C6CC6)o5)n4)cc3F)n(C[C@@H]3CCO3)c2c1 [Example 67, (S)-2-(4-(6-((5-cyclopropyl-1,3,4-oxadiazol-2-yl)methoxy)pyridin-2-yl)-2,5-difluorobenzyl)-1-(oxetan-2-ylmethyl)-1H-benzo[d]imidazole-6-carboxylic acid] | 6.52 nM
COc1cc(COc2cccc(-c3cc(F)c(Cc4nc5ccc(C(=O)O)cc5n4C[C@@H]4CCO4)cc3F)n2)nn1C [Example 68, (S)-2-(2,5-difluoro-4-(6-((5-methoxy-1-methyl-1H-pyrazol-3-yl)methoxy)pyridin-2-yl)benzyl)-1-(oxetan-2-ylmethyl)-1H-benzo[d]imidazole-6-carboxylic acid] | 5.37 nM
O=C(O)c1cc(F)c2nc(Cc3ccc(-c4cccc(OCc5cc6n(n5)CCC6)n4)c(F)c3)n(C[C@@H]3CCO3)c2c1 [Example 69, (S)-2-(4-(6-((5,6-dihydro-4H-pyrrolo[1,2-b]pyrazol-2-yl)methoxy)pyridin-2-yl)-3-fluorobenzyl)-4-fluoro-1-(oxetan-2-ylmethyl)-1H-benzo[d]imidazole-6-carboxylic acid] | 2.59 nM
O=C(O)c1ccc2nc(Cc3cc(F)c(-c4cccc(OCc5cc6n(n5)CCCC6)n4)cc3F)n(C[C@@H]3CCO3)c2c1 [Example 70, (S)-2-(2,5-difluoro-4-(6-((4,5,6,7-tetrahydropyrazolo[1,5-a]pyridin-2-yl)methoxy)pyridin-2-yl)benzyl)-1-(oxetan-2-ylmethyl)-1H-benzo[d]imidazole-6-carboxylic acid] | 1.93 nM
Cn1nc(COc2cccc(-c3cc(F)c(Cc4nc5ccc(C(=O)O)cc5n4C[C@@H]4CCO4)cc3F)n2)cc1C(F)(F)F [Example 71, (S)-2-(2,5-difluoro-4-(6-((1-methyl-5-(trifluoromethyl)-1H-pyrazol-3-yl)methoxy)pyridin-2-yl)benzyl)-1-(oxetan-2-ylmethyl)-1H-benzo[d]imidazole-6-carboxylic acid] | 0.29 nM
Cc1cc(COc2cccc(-c3cc(F)c(Cc4nc5ccc(C(=O)O)cc5n4C[C@@H]4CCO4)cc3F)n2)nn1C [Example 72, (S)-2-(4-(6-((1,5-dimethyl-1H-pyrazol-3-yl)methoxy)pyridin-2-yl)-2,5-difluorobenzyl)-1-(oxetan-2-ylmethyl)-1H-benzo[d]imidazole-6-carboxylic acid] | 0.82 nM
Cn1nc(COc2cccc(-c3cc(F)c(Cc4nc5ccc(C(=O)O)cc5n4C[C@@H]4CCO4)cc3F)n2)c2c1CCC2 [Example 73, (S)-2-(2,5-difluoro-4-(6-((1-methyl-1,4,5,6-tetrahydrocyclopenta[c]pyrazol-3-yl)methoxy)pyridin-2-yl)benzyl)-1-(oxetan-2-ylmethyl)-1H-benzo[d]imidazole-6-carboxylic acid] | 1.1 nM
O=C(O)c1ccc2nc(Cc3cc(F)c(-c4cccc(OCc5cc6n(n5)CC(F)(F)C6)n4)cc3F)n(C[C@@H]3CCO3)c2c1 [Example 74, (S)-2-(4-(6-((5,5-difluoro-5,6-dihydro-4H-pyrrolo[1,2-b]pyrazol-2-yl)methoxy)pyridin-2-yl)-2,5-difluorobenzyl)-1-(oxetan-2-ylmethyl)-1H-benzo[d]imidazole-6-carboxylic acid] | 0.25 nM
O=C(O)c1ccc2nc(Cc3cc(F)c(-c4cccc(OCc5cc6n(n5)CC5(CC5)C6)n4)cc3F)n(C[C@@H]3CCO3)c2c1 [Example 75, (S)-2-(4-(6-((4′,6′-dihydrospiro[cyclopropane-1,5′-pyrrolo[1,2-b]pyrazol]-2′-yl)methoxy)pyridin-2-yl)-2,5-difluorobenzyl)-1-(oxetan-2-ylmethyl)-1H-benzo[d]imidazole-6-carboxylic acid] | 0.61 nM
CCn1cc(Cl)c(COc2cccc(-c3cc(F)c(Cc4nc5ccc(C(=O)O)cc5n4C[C@@H]4CCO4)cc3F)n2)n1 [Example 76, (S)-2-(4-(6-((4-chloro-1-ethyl-1H-pyrazol-3-yl)methoxy)pyridin-2-yl)-2,5-difluorobenzyl)-1-(oxetan-2-ylmethyl)-1H-benzo[d]imidazole-6-carboxylic acid] | 4.23 nM
Cc1cn(C)nc1COc1cccc(-c2cc(F)c(Cc3nc4ccc(C(=O)O)cc4n3C[C@@H]3CCO3)cc2F)n1 [Example 77, (S)-2-(4-(6-((1,4-dimethyl-1H-pyrazol-3-yl)methoxy)pyridin-2-yl)-2,5-difluorobenzyl)-1-(oxetan-2-ylmethyl)-1H-benzo[d]imidazole-6-carboxylic acid] | 6.32 nM
Cn1cc(Cl)c(COc2cccc(-c3cc(F)c(Cc4nc5ccc(C(=O)O)cc5n4C[C@@H]4CCO4)cc3F)n2)n1 [Example 78, (S)-2-(4-(6-((4-chloro-1-methyl-1H-pyrazol-3-yl)methoxy)pyridin-2-yl)-2,5-difluorobenzyl)-1-(oxetan-2-ylmethyl)-1H-benzo[d]imidazole-6-carboxylic acid] | 9.4 nM
Cn1cc(-c2cnc(COc3cccc(-c4cc(F)c(Cc5nc6ccc(C(=O)O)cc6n5C[C@@H]5CCO5)cc4F)n3)s2)cn1 [Example 79, 2-[[2,5-difluoro-4-[6-[[5-(1-methylpyrazol-4-yl)thiazol-2-yl]methoxy]-2-pyridyl]phenyl]methyl]-3-[[(2S)-oxetan-2-yl]methyl]benzimidazole-5-carboxylic acid] | 0.06 nM
O=C(O)c1ccc2nc(Cc3cc(F)c(-c4cccc(OCc5ncc(-c6cnn(C7COC7)c6)s5)n4)cc3F)n(C[C@@H]3CCO3)c2c1 [Example 80, (S)-2-(2,5-difluoro-4-(6-((5-(1-(oxetan-3-yl)-1H-pyrazol-4-yl)thiazol-2-yl)methoxy)pyridin-2-yl)benzyl)-1-(oxetan-2-ylmethyl)-1H-benzo[d]imidazole-6-carboxylic acid] | 0.19 nM
O=C(O)c1ccc2nc(Cc3cc(F)c(-c4cccc(OCc5cc(C(F)(F)F)ns5)n4)cc3F)n(C[C@@H]3CCO3)c2c1 [Example 81, (S)-2-(2,5-difluoro-4-(6-((3-(trifluoromethyl)isothiazol-5-yl)methoxy)pyridin-2-yl)benzyl)-1-(oxetan-2-ylmethyl)-1H-benzo[d]imidazole-6-carboxylic acid] | 0.81 nM
Cn1cc(-n2ccc(COc3cccc(-c4cc(F)c(Cc5nc6ccc(C(=O)O)cc6n5C[C@@H]5CCO5)cc4F)n3)n2)cn1 [Example 82, (S)-2-(2,5-difluoro-4-(6-((1′-methyl-1′H-[1,4′-bipyrazol]-3-yl)methoxy)pyridin-2-yl)benzyl)-1-(oxetan-2-ylmethyl)-1H-benzo[d]imidazole-6-carboxylic acid] | 5.53 nM
O=C(O)c1ccc2nc(Cc3cc(F)c(-c4cccc(OCc5ccn(-c6cnn(C(F)F)c6)n5)n4)cc3F)n(C[C@@H]3CCO3)c2c1 [Example 83, (S)-2-(4-(6-((1′-(difluoromethyl)-1′H-[1,4′-bipyrazol]-3-yl)methoxy)pyridin-2-yl)-2,5-difluorobenzyl)-1-(oxetan-2-ylmethyl)-1H-benzo[d]imidazole-6-carboxylic acid] | 3.51 nM
O=C(O)c1ccc2nc(Cc3cc(F)c(-c4cccc(OCc5ncc(-c6cnn(C(F)F)c6)s5)n4)cc3F)n(C[C@@H]3CCO3)c2c1 [Example 84, (S)-2-(4-(6-((5-(1-(difluoromethyl)-1H-pyrazol-4-yl)thiazol-2-yl)methoxy)pyridin-2-yl)-2,5-difluorobenzyl)-1-(oxetan-2-ylmethyl)-1H-benzo[d]imidazole-6-carboxylic acid] | 0.07 nM
O=C(O)c1cc(F)c2nc(Cc3cc(F)c(-c4cccc(OCc5ncc(-c6cnn(C(F)F)c6)s5)n4)cc3F)n(C[C@@H]3CCO3)c2c1 [Example 85, (S)-2-(4-(6-((5-(1-(difluoromethyl)-1H-pyrazol-4-yl)thiazol-2-yl)methoxy)pyridin-2-yl)-2,5-difluorobenzyl)-4-fluoro-1-(oxetan-2-ylmethyl)-1H-benzo[d]imidazole-6-carboxylic acid] | 0.05 nM
Cn1cc(-c2cc(F)c(COc3cccc(-c4cc(F)c(Cc5nc6ccc(C(=O)O)cc6n5C[C@@H]5CCO5)cc4F)n3)s2)cn1 [Example 86, (S)-2-(2,5-difluoro-4-(6-((3-fluoro-5-(1-methyl-1H-pyrazol-4-yl)thiophen-2-yl)methoxy)pyridin-2-yl)benzyl)-1-(oxetan-2-ylmethyl)-1H-benzo[d]imidazole-6-carboxylic acid] | 0.14 nM
